We go through 11 molecules from patent US8258135B2, “Quinolizidinone M1 receptor positive allosteric modulators” (Merck Sharp & Dohme Corp., priority 2007, dated 2012).

Molecules are shown by their SMILES.

The first assay addresses T1, acetylcholine muscarinic M1 receptor (Homo sapiens, UniProt P11229).
T1 construct: expressed in transfected cells; host or cells: CHOnfat (CHO cells, NFAT reporter background) expressing hM1
T1 sequence (P11229 1-460): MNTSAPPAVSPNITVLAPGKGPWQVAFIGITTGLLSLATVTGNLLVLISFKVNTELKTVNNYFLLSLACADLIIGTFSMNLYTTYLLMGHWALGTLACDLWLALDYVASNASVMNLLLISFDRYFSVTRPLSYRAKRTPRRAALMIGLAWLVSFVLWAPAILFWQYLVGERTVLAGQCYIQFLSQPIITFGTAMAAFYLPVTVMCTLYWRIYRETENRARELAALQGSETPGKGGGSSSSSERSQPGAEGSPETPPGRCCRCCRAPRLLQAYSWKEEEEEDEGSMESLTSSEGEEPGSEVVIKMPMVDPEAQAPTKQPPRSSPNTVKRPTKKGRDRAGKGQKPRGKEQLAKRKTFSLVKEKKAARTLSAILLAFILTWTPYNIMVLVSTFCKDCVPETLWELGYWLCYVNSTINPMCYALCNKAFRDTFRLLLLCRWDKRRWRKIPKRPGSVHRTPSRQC
Briefly: muscarinic FLIPR assay: intracellular calcium in CHOnfat/hM1 cells, potentiation of EC20 acetylcholine. In kind it is cell-based.
Details: not given
As to the method: The assay studies the effect of one or several concentrations of test compounds on basal or acetylcholine-stimulated Ca^2+ levels using FLIPR.
Compounds are prepared and subjected to a preincubation period of 4 min. Thereafter, a single EC20 concentration of acetylcholine is added to each well (3 nM final). The intracellular Ca^2+ level of each sample is measured and compared to an acetylcholine control to determine any modulatory activity.
Cells: CHOnfat/hM1, hM2, hM3 or hM4 cells are plated 24 hr before the assay at a density of 18,000 cells/well (100 μL) in a 384 well plate. CHOnfat/hM1 and CHOnfat/hM3 Growth Medium: 90% DMEM (Hi Glucose); 10% HI FBS; 2 mM L-glutamine; 0.1 mM NEAA; Pen-Strep; and 1 mg/ml Geneticin, are added. For M2Gqi5CHOnfat and M4Gqi5CHOnfat cells, an additional 600 ug/ml hygromycin is added.
Equipment: 384 well plate, 120 μL addition plate; 96-well Whatman 2 ml Uniplate Incubator, 37° C., 5% CO2; Skatron EMBLA-384 Plate Washer; Multimek Pipetting System; Genesis Freedom 200 System; Mosquito System; Temo Nanoliter Pipetting System; and FLIPR^384 Fluorometric Imaging Plate Reader System are used.
Buffers. Assay Buffer: Hanks Balanced Salt Solution, with 20 mM Hepes, 2.5 mM Probenecid (Sigma P-8761) first dissolved in 1N NaOH, 1% Bovine Serum Albumin (Sigma A-9647). Dye Loading Buffer: Assay Buffer plus 1% Fetal Bovine Serum and Fluo-4AM/Pluronic Acid Mixture. 2 mM Fluo-4AM ester stock in DMSO (Molecular Probes F-14202) Concentration of 2 uM in buffer for a final concentration of 1 μM in Assay. 20% Pluronic Acid Solution stock, with concentration of 0.04% in Buffer, 0.02% in Assay.
65 μL of 2 mM Fluo-4AM are mixed with 130 μL of 20% Pluronic Acid. The resulting solution and 650 μL FBS is added to the assay buffer for a total volume of 65 mL. Positive Controls: 4-Br-A23187: 10 mM in DMSO; final concentration 10 μM. Acetylcholine: 10 mM in water, working stock at both 20 uM and 30 uM in assay buffer, final concentration of 10 μM. This is used to check the maximum stimulation of the CHOK1/hM1 cells. 20 uM (2×) acetylcholine is added in the preincubation part of the assay, and the 30 uM (3×) stock is added in the second part. (EC20)Acetylcholine: 10 mM in water, working stock of 9 nM (3×), and final concentration in assay is 3 nM. This is used after the preincubation with test compounds. Addition of the EC20) Acetylcholine to each well with a test compound will ascertain any modulator activity. 24 wells contain 3 nM Acetylcholine alone as a control.
Determining Activity of Putative Compounds:
Screening Plate Compounds are titrated in 96-well plates (columns 2-11), 100% DMSO, started at a concentration of 15 mM (150× stock concentration), and 3-fold serial dilutions using Genesis Freedom200 System. Four 96-well plates are combined into a 384-well plate using Mosquito Nanoliter Pipetting System by transferring 1 ul of serial diluted compounds to each well, and 1 mM acetylcholine (100× stock concentration) were added as a control. Using Temo, 49 μl assay buffer is added to each well of the 384-well plate right before assay.
In a 96-well Whatman 2 ml Uniplate, 9 nM Acetylcholine (3×) is pipetted into wells corresponding to the screening compounds, and into control wells. The 30 uM acetylcholine control (3×) is added into control wells, and the 3× agonist plate is transferred into a 384 well plate.
Cells are washed three times with 100 μL of buffer, leaving 30 μL of buffer in each well. Using Multimek, 30 μL of Dye Loading Buffer is added into each well and incubated at […], 5% CO2 for up to one hr.
After 60 min, the cells are washed three times with 100 μL of buffer, leaving 30 μL of buffer in each well. The cell plate, screening plate, and agonist addition plates are placed on the platform in the FLIPR and the door closed. A signal test to check background fluorescence and basal fluorescence signal is performed. Laser intensity is adjusted if necessary. […]
For `N#CC1(c2ccccc2)CCN(Cc2cc(C(=O)O)c(=O)n3ccccc23)CC1` [Example 3], the EC50 came out at 152 nM.
Same read-out and setting: as for `Cc1cccc(C2(C#N)CCN(Cc3cc(C(=O)O)c(=O)n4ccccc34)CC2)c1` [Example 8], the figure is 87 nM; as for `COc1ccccc1C1(C#N)CCN(Cc2cc(C(=O)O)c(=O)n3ccccc23)CC1` [Example 10], 164 nM.
Still for that read-out and setting: as for `N#CC1(c2cccc(Cl)n2)CCN(Cc2cc(C(=O)O)c(=O)n3ccccc23)CC1` [Example 28], the figure is 133 nM; as for `N#CC1(c2nc3ccccc3s2)CCN(Cc2cc(C(=O)O)c(=O)n3ccccc23)CC1` [Example 45], 91 nM; as for `N#CC1(c2cccc(F)c2)CCN(Cc2cc(C(=O)O)c(=O)n3ccccc23)CC1` [Example 46, 1-{[4-cyano-4-(3-fluorophenyl)piperidin-1-yl]methyl}-4-oxo-4H-quinolizine-3-carboxylic acid], 562 nM.
Take `N#CC1(c2cccnc2)CCN(Cc2cc(C(=O)O)c(=O)n3ccccc23)CC1` [Example 47, 1-[(4-cyano-4-pyridin-3-ylpiperidin-1-yl)methyl]-4-oxo-4H-quinolizine-3-carboxylic acid]: the EC50 stood at 363 nM.

Staying with this assay, now noted: CHOnfat/hM1 cells, FLIPR, 4 min preincubation, then EC20 acetylcholine (3 nM final); read-out: IP Value (inflection point).
In the case of `N#CC1(c2cnc3ccccc3n2)CCN(Cc2cc(C(=O)O)c(=O)n3ccccc23)CC1` [Example 42], the EC50 is 1240 nM.
Still for that read-out and setting: as for `N#CC1(c2ncccc2Br)CCN(Cc2cc(C(=O)O)c(=O)n3ccccc23)CC1` [Example 48, 1-{[4-(3-bromopyridin-2-yl)-4-cyanopiperidin-1-yl]methyl}-4-oxo-4H-quinolizine-3-carboxylic acid], the figure is 3400 nM; as for `C=Cc1cccnc1C1(C#N)CCN(Cc2cc(C(=O)O)c(=O)n3ccccc23)CC1` [Example 49, 1-{[4-cyano-4-(3-vinylpyridin-2-yl)piperidin-1-yl]methyl}-4-oxo-4H-quinolizine-3-carboxylic acid], 6300 nM.
Same read-out and setting: the result for `C=Cc1ccc(C2(C#N)CCN(Cc3cc(C(=O)O)c(=O)n4ccccc34)CC2)nc1` [Example 50, 1-{[4-cyano-4-(5-vinylpyridin-2-yl)piperidine-1-yl]methyl}-4-oxo-4H-quinolizine-3-carboxylic acid] reads 403 nM.
